Data reported in patent publication US20070128217A1 (priority 2003, published 2007).

Tests used:
[1] = tested on: control sera (pooled serum of ten healthy LUMC hospital workers; commercial negative donor pooled serum from the Dutch bloodbank); format: binding, human; parameters: Binding of Control serum LUMC to linear peptides / Binding of Control serum Blood-bank to linear peptides / Binding of Control serum LUMC to looped peptides / Binding of Control Serum Blood-Bank to Looped peptides / Binding of Control serum LUMC to linear peptides of the protein M of SARS-CoV Urbani / Binding of Control serum Blood-bank to linear peptides of the protein M of SARS-CoV Urbani / Binding of Control serum LUMC to looped peptides of the protein M of SARS-CoV Urbani / Binding of Control Serum Blood-Bank to Looped peptides of the protein M of SARS-CoV Urbani: unit not given here
[2] = tested on: rabbit serum obtained by immunizing a rabbit with the SARS-CoV strain Frankfurt 1; format: binding; parameters: Binding of a rabbit serum to linear peptides / Binding of a rabbit serum to looped peptides / Rabbit serum linear peptides / Rabbit serum looped peptides / Binding of a rabbit serum to linear peptides of protein N of SARS-CoV Urbani (Rabbit serum linear peptides) / Binding of a rabbit serum to looped/cyclic peptides of protein N of SARS-CoV Urbani (Rabbit serum looped peptides): unit not given here
[3] = tested on: antibodies in sera from SARS patients (sera 1a, 1b, 2, 6, 37, 62, London, SARS-yellow, SARS-green); format: binding, human; parameters: Binding of serum 6 to linear peptides of protein X1 of SARS-CoV Urbani / Binding of serum 37 to linear peptides of protein X1 of SARS-CoV Urbani / Binding of serum 6 to looped/cyclic peptide (PEPSCAN-ELISA) / Binding of serum 37 to looped/cyclic peptide (PEPSCAN-ELISA) / Binding of serum 37 to looped/cyclic peptides of protein X1 of SARS-CoV Urbani / Binding of serum 6 to linear peptides of protein X2 / Binding of serum 37 to linear peptides of protein X2 / Binding of serum 37 to looped/cyclic peptides of protein X2 of SARS-CoV Urbani / Binding of serum 6 to linear peptides of protein M of SARS-CoV Urbani / Binding of serum 37 to linear peptides of protein M of SARS-CoV Urbani / Binding of serum 6 to looped/cyclic peptides of protein M of SARS-CoV Urbani / Binding of serum 37 to looped/cyclic peptides of protein M of SARS-CoV Urbani / Binding of serum 6 to linear peptides of protein X3 of SARS-CoV Urbani / Binding of serum 37 to linear peptides of protein X3 of SARS-CoV Urbani / Binding of serum 37 to looped/cyclic peptides of protein X3 of SARS-CoV Urbani / Binding of serum 6 to linear peptides of protein X4 of SARS-CoV Urbani / Binding of serum 37 to linear peptides of protein X4 of SARS-CoV Urbani / Binding of serum 37 to looped/cyclic peptides of protein X4 of SARS-CoV Urbani / Binding of serum 6 to linear peptides of protein X5 of SARS-CoV Urbani / Binding of serum 37 to linear peptides of protein X5 of SARS-CoV Urbani / Binding of serum 37 to looped/cyclic peptides of protein X5 of SARS-CoV Urbani / Binding of serum 6 to linear peptides of protein N of SARS-CoV Urbani / Binding of serum 37 to linear peptides of protein N of SARS-CoV Urbani / Binding of serum 6 to linear peptide (PEPSCAN-ELISA) / Binding of serum 1a to looped/cyclic peptides of protein N of SARS-CoV Urbani / Binding of serum 1b to looped/cyclic peptides of protein N of SARS-CoV Urbani / Binding of serum 2 to looped/cyclic peptides of protein N of SARS-CoV Urbani / Binding of serum 6 to looped/cyclic peptides of protein N of SARS-CoV Urbani / Binding of serum 37 to looped/cyclic peptides of protein N of SARS-CoV Urbani / Binding of serum 62 to looped/cyclic peptides of protein N of SARS-CoV Urbani / Binding of serum London to looped/cyclic peptides of protein N of SARS-CoV Urbani / Binding of serum SARS-green to looped/cyclic peptides of protein N of SARS-CoV Urbani: unit not given here

ADNKFALTCTSTHFA was tested, and the “Binding of Control Serum Blood-Bank to Looped peptides” value [1] was 0.7, the “Binding of Control serum Blood-bank to linear peptides” value [1] was 0.8 and the “Binding of Control serum LUMC to linear peptides” value [1] was 0.9. The “Binding of Control serum LUMC to looped peptides” value [1] was 0.9, the “Rabbit serum linear peptides” value [2] was 0.7 and the “Rabbit serum looped peptides” value [2] was 0.2.

In the case of AEILIIIMRTFRIAI, the “Binding of Control Serum Blood-Bank to Looped peptides of the protein X3 of SARS-CoV Urbani” value [1] is reported as 0.7, the “Binding of Control serum Blood-bank to linear peptides of the protein X3 of SARS-CoV Urbani” value [1] is reported as 0.7 and the “Binding of Control serum LUMC to linear peptides of the protein X3 of SARS-CoV Urbani” value [1] is reported as 0.4. For the same sequence, the “Binding of Control serum LUMC to looped peptides of the protein X3 of SARS-CoV Urbani” value [1] was 0.8, the “Rabbit serum linear peptides” value [2] was 0.3 and the “Rabbit serum looped peptides” value [2] was 0.0.

In the case of AGHPLGRCDIKDLPK, the “Binding of Control Serum Blood-Bank to Looped peptides of the protein M of SARS-CoV Urbani” value [1] is reported as 0.9, the “Binding of Control serum Blood-bank to linear peptides of the protein M of SARS-CoV Urbani” value [1] is reported as 1.1 and the “Binding of Control serum LUMC to linear peptides of the protein M of SARS-CoV Urbani” value [1] is reported as 0.8. The “Binding of Control serum LUMC to looped peptides of the protein M of SARS-CoV Urbani” value [1] was 0.7, the “Rabbit serum linear peptides” value [2] was 0.1 and the “Rabbit serum looped peptides” value [2] was 0.1.

ANYFVCWHTHNYDYC was tested, and the “Binding of Control Serum Blood-Bank to Looped peptides” value [1] was 0.5, the “Binding of Control serum Blood-bank to linear peptides” value [1] was 0.7 and the “Binding of Control serum LUMC to linear peptides” value [1] was 0.7. For the same sequence, the “Binding of Control serum LUMC to looped peptides” value [1] was 0.6, the “Binding of a rabbit serum to linear peptides” value [2] was 0.1 and the “Binding of a rabbit serum to looped peptides” value [2] was 0.5.

For AQPVKIDNASPASTV, the “Binding of Control Serum Blood-Bank to Looped peptides” value [1] was 1.0, the “Binding of Control serum Blood-bank to linear peptides” value [1] was 0.7 and the “Binding of Control serum LUMC to linear peptides” value [1] was 0.6. For the same sequence, the “Binding of Control serum LUMC to looped peptides” value [1] was 1.0, the “Binding of a rabbit serum to linear peptides” value [2] was 0.1 and the “Binding of a rabbit serum to looped peptides” value [2] was 0.5.

ATFFIFNKLVKDPPN was tested, and the “Binding of Control Serum Blood-Bank to Looped peptides” value [1] was 0.8, the “Binding of Control serum Blood-bank to linear peptides” value [1] was 0.5 and the “Binding of Control serum LUMC to linear peptides” value [1] was 0.5. For the same sequence, the “Binding of Control serum LUMC to looped peptides” value [1] was 0.8, the “Binding of a rabbit serum to linear peptides” value [2] was 0.1 and the “Binding of a rabbit serum to looped peptides” value [2] was 0.6.

In the case of CAYCCNIVNVSLVKP, the “Binding of Control Serum Blood-Bank to Looped peptides” value [1] is reported as 0.9, the “Binding of Control serum Blood-bank to linear peptides” value [1] is reported as 1.1 and the “Binding of Control serum LUMC to linear peptides” value [1] is reported as 0.7. For the same sequence, the “Binding of Control serum LUMC to looped peptides” value [1] was 0.7, the “Binding of a rabbit serum to linear peptides” value [2] was 0.6 and the “Binding of a rabbit serum to looped peptides” value [2] was 0.2.

For CCNIVNVSLVKPTVY, the “Binding of Control Serum Blood-Bank to Looped peptides” value [1] was 0.4, the “Binding of Control serum Blood-bank to linear peptides” value [1] was 0.7 and the “Binding of Control serum LUMC to linear peptides” value [1] was 0.5. The “Binding of Control serum LUMC to looped peptides” value [1] was 0.5, the “Binding of a rabbit serum to linear peptides” value [2] was 0.6 and the “Binding of a rabbit serum to looped peptides” value [2] was 0.0.

With CNIVNVSLVKPTVYV the “Binding of Control Serum Blood-Bank to Looped peptides” value [1] was 0.6, the “Binding of Control serum Blood-bank to linear peptides” value [1] was 0.7 and the “Binding of Control serum LUMC to linear peptides” value [1] was 0.8. For the same sequence, the “Binding of Control serum LUMC to looped peptides” value [1] was 0.8, the “Binding of a rabbit serum to linear peptides” value [2] was 0.1 and the “Binding of a rabbit serum to looped peptides” value [2] was 0.5.

In the case of CQDPAGGALIARCWY, the “Binding of Control Serum Blood-Bank to Looped peptides” value [1] is reported as 0.9, the “Binding of Control serum Blood-bank to linear peptides” value [1] is reported as 0.7 and the “Binding of Control serum LUMC to linear peptides” value [1] is reported as 0.3. The “Binding of Control serum LUMC to looped peptides” value [1] was 0.7, the “Rabbit serum linear peptides” value [2] was 0.5 and the “Rabbit serum looped peptides” value [2] was 0.6.

In the case of IALNKRWQLALYKGF, the “Binding of serum 1a to linear peptides of protein X1 of SARS-CoV Urbani” value [3] is reported as 0.8, the “Binding of serum 1a to looped/cyclic peptide (PEPSCAN-ELISA)” value [3] is reported as 0.5 and the “Binding of serum 1b to linear peptides of protein X1 of SARS-CoV Urbani” value [3] is reported as 0.7. The “Binding of serum 1b to looped/cyclic peptide (PEPSCAN-ELISA)” value [3] was 0.4, the “Binding of serum 2 to linear peptides of protein X1 of SARS-CoV Urbani” value [3] was 0.6 and the “Binding of serum 2 to looped/cyclic peptide (PEPSCAN-ELISA)” value [3] was 0.5. The “Binding of serum 6 to linear peptides of protein X1 of SARS-CoV Urbani” value [3] was 0.9, the “Binding of serum 6 to looped/cyclic peptide (PEPSCAN-ELISA)” value [3] was 0.4 and the “Binding of serum 37 to linear peptides of protein X1 of SARS-CoV Urbani” value [3] was 0.7. For the same sequence, the “Binding of serum 37 to looped/cyclic peptide (PEPSCAN-ELISA)” value [3] was 0.5, the “Binding of serum 62 to linear peptides of protein X1 of SARS-CoV Urbani” value [3] was 0.7 and the “Binding of serum 62 to looped/cyclic peptide (PEPSCAN-ELISA)” value [3] was 0.7. For the same sequence, the “Binding of serum London to linear peptides of protein X1 of SARS-CoV Urbani” value [3] was 0.3, the “Binding of serum London to looped/cyclic peptide (PEPSCAN-ELISA)” value [3] was 0.3 and the “Binding of serum SARS-green to linear peptides of protein X1 of SARS-CoV Urbani” value [3] was 0.4. For the same sequence, the “Binding of serum SARS-green to looped/cyclic peptide (PEPSCAN-ELISA)” value [3] was 0.4, the “Binding of serum SARS-yellow to linear peptides of protein X1 of SARS-CoV Urbani” value [3] was 0.5 and the “Binding of serum SARS-yellow to looped/cyclic peptide (PEPSCAN-ELISA)” value [3] was 0.6. For the same sequence, the “Recognition of the peptide by the rabbit serum” value [2] was “recognized”.

For KIIALNKRWQLALYK, the “Binding of serum 1a to linear peptides of protein X1 of SARS-CoV Urbani” value [3] was 0.8, the “Binding of serum 1a to looped/cyclic peptide (PEPSCAN-ELISA)” value [3] was 0.7 and the “Binding of serum 1b to linear peptides of protein X1 of SARS-CoV Urbani” value [3] was 0.7. The “Binding of serum 1b to looped/cyclic peptide (PEPSCAN-ELISA)” value [3] was 0.5, the “Binding of serum 2 to linear peptides of protein X1 of SARS-CoV Urbani” value [3] was 0.7 and the “Binding of serum 2 to looped/cyclic peptide (PEPSCAN-ELISA)” value [3] was 0.7. The “Binding of serum 6 to linear peptides of protein X1 of SARS-CoV Urbani” value [3] was 1.0, the “Binding of serum 6 to looped/cyclic peptide (PEPSCAN-ELISA)” value [3] was 0.8 and the “Binding of serum 37 to linear peptides of protein X1 of SARS-CoV Urbani” value [3] was 0.8. The “Binding of serum 37 to looped/cyclic peptide (PEPSCAN-ELISA)” value [3] was 0.8, the “Binding of serum 62 to linear peptides of protein X1 of SARS-CoV Urbani” value [3] was 0.8 and the “Binding of serum 62 to looped/cyclic peptide (PEPSCAN-ELISA)” value [3] was 0.7. The “Binding of serum London to linear peptides of protein X1 of SARS-CoV Urbani” value [3] was 0.4, the “Binding of serum London to looped/cyclic peptide (PEPSCAN-ELISA)” value [3] was 0.3 and the “Binding of serum SARS-green to linear peptides of protein X1 of SARS-CoV Urbani” value [3] was 0.4. For the same sequence, the “Binding of serum SARS-green to looped/cyclic peptide (PEPSCAN-ELISA)” value [3] was 0.3, the “Binding of serum SARS-yellow to linear peptides of protein X1 of SARS-CoV Urbani” value [3] was 0.5 and the “Binding of serum SARS-yellow to looped/cyclic peptide (PEPSCAN-ELISA)” value [3] was 0.5. For the same sequence, the “Recognition of the peptide by the rabbit serum” value [2] was “recognized”.

RCWLCWKCKSKNPLL was tested, and the “Binding of serum 1a to looped/cyclic peptide (PEPSCAN-ELISA)” value [3] was 0.7, the “Binding of serum 1b to looped/cyclic peptide (PEPSCAN-ELISA)” value [3] was 0.5 and the “Binding of serum 2 to looped/cyclic peptide (PEPSCAN-ELISA)” value [3] was 0.7. The “Binding of serum 6 to looped/cyclic peptide (PEPSCAN-ELISA)” value [3] was 0.8, the “Binding of serum 37 to looped/cyclic peptide (PEPSCAN-ELISA)” value [3] was 0.8 and the “Binding of serum 62 to looped/cyclic peptide (PEPSCAN-ELISA)” value [3] was 0.7. The “Binding of serum London to looped/cyclic peptide (PEPSCAN-ELISA)” value [3] was 0.4, the “Binding of serum SARS-green to looped/cyclic peptide (PEPSCAN-ELISA)” value [3] was 0.4 and the “Binding of serum SARS-yellow to looped/cyclic peptide (PEPSCAN-ELISA)” value [3] was 0.7. For the same sequence, the “Recognition of the peptide by sera of SARS-CoV infected individuals, and form (linear, looped/cyclic) in which it is recognized” value [3] was “recognized in linear form”, the “Binding of a rabbit serum to linear peptides” value [2] was 0.1 and the “Binding of a rabbit serum to looped peptides” value [2] was 0.7.
